Type in all cases: in vivo
The test system of series [1] is Monochoria vaginalis Presi. The series is described as follows: Test for residual effectiveness against paddy field weeds (Test Example 2). The conditions noted are these: 60 g ai/ha; period of maintaining herbicidal effect of higher than 80%. From the text: (§1) In a green house a 1000 cm^2 pot was filled with paddy field soil and water was poured to a depth of about 2 to 3 cm. A prescribed, diluted solution of the above-mentioned Test Example 1, was applied to the surface of water. After the prescribed time after the treatment (just after treatment, 1 week, 2 weeks, 3 weeks, 4 weeks, 5 weeks, 6 weeks and 7 weeks after treatment), seeds or tubers of the weeds to be tested Scirpus juncoides Roxburgh, Monochoria vaginalis Presi, annual broad-leaved weeds (Lindernia procumbens Philcox, Rotala indica Koehne, Elatine triandra Schk, Ammannia multiflora Roxb., etc.), Cyperus serotinus Rottboel and Sagittaria pygmaea Miq. were inoculated. Three weeks after the inoculation each herbicidal effect was examined.
(§2) The evaluation of the residual effectiveness was shown as the period (number of weeks) of maintaining herbicidal effect of higher than 80%, after the evaluation of herbicidal effect had been conducted in the similar manner as the above-mentioned Test Example 1.

Series [2] concerns Sagittaria pygmaea Miq. Described as above. The note with it: 60 g ai/ha; period of maintaining herbicidal effect of higher than 80%.
Text: as §1, §2

Series [3] concerns Scirpus juncoides Roxburgh. The series is described as above. The conditions noted are these: 60 g ai/ha; period of maintaining herbicidal effect of higher than 80%.
Text: as §1, §2

For series [4], the system named is annual broad-leaved weeds. The description is as above. The conditions noted are these: 60 g ai/ha; period of maintaining herbicidal effect of higher than 80%.
Text: as §1, §2

In series [5] the test system is transplanted rice (var. Nipponbare). The series is described as follows: Test for phytotoxicity to transplanted rice (Test Example 4). The note with it: 60 g ai/ha, application 5 days after transplanting, examined 2 weeks after treatment; for phytotoxicity to transplanted rice depth 0 cm: planting depth 0 cm; for phytotoxicity to transplanted rice depth 0.5 cm: planting depth 0.5 cm; for phytotoxicity to transplanted rice depth 2 cm: planting depth 2 cm. As for the experimental part:
The phytotoxicity to transplanted rice was evaluated under the conditions with more shallow planting depths than usual depth of 2 cm, simulating the severe condition for herbicides to cause rice injury in the paddy. In a greenhouse 2 to 2.5 leaf-stage of rice (var. Nipponbare) was transplanted at three different depths, in a 1000 cm^2 pot filled with paddy field soil. Then water was poured to a depth of about 2 to about 3 cm. Five days after transplanting, a prescribed, diluted solution of the formulation of each active compound, prepared in the same manner as the above-mentioned Test Example 1, was applied to the surface of water. After the treatment the water depth of 3 cm was maintained and the rice injury was examined after 2 weeks from the treatment. The rice injury was rated 100% in the case of complete death and as 0% in the case of no injury. In case of showing less than 20% injury, it is evaluated as practical as rice herbicide.

Series [6] has as its system Cyperus difformis L. The series is described as follows: Herbicidal effect against paddy field weeds, spray at two leaf-stage of rice (Test Example 5). The conditions noted are these: 50 g ai/ha, evaluated 3 weeks after treatment. From the text:
(§3) In a greenhouse seeds of Scirpus juncoides Roxburgh, Monochoria vaginalis Presi, Cyperus difformis L., annual broad-leaved weeds (Lindernia procumbens Philcox, Rotala indica Koehne, Elatine triandra Schk, Ammannia multiflora Roxb.) and rice (var.: Nipponbare and RD-23) were inoculated in a 500 cm^2 pot filled with paddy field soil. Then water was poured to a depth of about 0 to about 0.5 cm, to be a wet condition. At two leaf-stage of rice, a prescribed, diluted solution of the formulation of each active compound, prepared in the same manner as the above-mentioned Test Example 1, was sprayed over the pots with plants. At 2 days after the treatment, the water depth of 3 cm was maintained and the herbicidal effect and rice injury was evaluated at 3 weeks and 2 weeks after the treatment, respectively.
(§4) The herbicidal effect and rice injury were rated 100% in the case of complete death and as 0% in the case of no effect or injury. In case of showing higher than 80% herbicidal effect and less than 20% injury, it is evaluated as practical as rice herbicide.

The test system of series [7] is Monochoria vaginalis Presi. The description is as above. The note with it: 50 g ai/ha, evaluated 3 weeks after treatment.
Text: as §3, §4

The test system of series [8] is Scirpus juncoides Roxburgh. The description is as above. The conditions noted are these: 50 g ai/ha, evaluated 3 weeks after treatment.
Text: as §3, §4

Series [9] has as its system annual broad-leaved weeds. The description is as above. The conditions noted are these: 50 g ai/ha, evaluated 3 weeks after treatment.
Text: as §3, §4

Series [10] has as its system direct-seedling rice var. Nipponbare. In words: Test for phytotoxicity to direct-seedling rice (Test Example 5). The note with it: 50 g ai/ha; spray at two leaf-stage of rice; evaluated 2 weeks after treatment.
Text: as §3, §4

Series [11] concerns direct-seedling rice var. RD-23. The series is described as above. The conditions noted are these: 50 g ai/ha; spray at two leaf-stage of rice; evaluated 2 weeks after treatment.
Text: as §3, §4

In series [12] the test system is Cyperus serotinus Rottboel. The series is described as follows: Test for herbicidal effect against paddy field weeds (Test Example 1). The note with it: examined 3 weeks after treatment. Here is the method: (§5) Preparation of Formulation of the Active Compound
(§6) • Carrier: DMF 5 parts by weight • Emulsifier: Benzyloxy polyglycol ether 1 part by weight
(§7) A formulation of an active compound is obtained as an emulsifiable concentrate by mixing 1 part by weight of the active compound with the above-mentioned amount of the carrier and emulsifier. A prescribed amount of the formulation is diluted with water.
(§8) In a green house seeds or tubers of Scirpus juncoides Roxburgh, Monochoria vaginalis Presi, annual broad-leaved weeds (Lindemia procumbens Philcox, Rotala indica Koehne, Elatine triandra Schk, Ammannia multiflora Roxb., etc.), Cyperus serotinus Rottboel were inoculated in a 500 cm^2 pot filled with paddy field soil. Then water was poured to a depth of about 2-3 cm. Five days and 13 days after inoculation, a prescribed, diluted solution of the formulation of each active compound, prepared according to the aforementioned preparation method, was applied to the surface of water. After the treatment the water depth of 3 cm was maintained and the herbicidal effect was examined after 3 weeks from the treatment.
(§9) The herbicidal effect was rated 100% in the case of complete death and as 0% in the case of no herbicidal effect. In case of showing higher than 80% herbicidal effect, it is evaluated as practical as herbicide.

Series [13] relates to Monochoria vaginalis Presi. The description is as above. The conditions noted are these: examined 3 weeks after treatment. Here is the method:
as §5, §6, §7, §8, §9

Series [14] deals with Scirpus juncoides Roxburgh. The description is as above. The conditions noted are these: examined 3 weeks after treatment. Here is the method: as §5, §6, §7, §8, §9
Series [15] has as its system annual broad-leaved weeds. The description is as above. The note with it: examined 3 weeks after treatment. As for the experimental part: as §5, §6, §7, §8, §9
Series [16] concerns sulfonylurea resistant Lindernia procumbens Philcox (collected in Kazo area, Saitama Pref.). The series is described as follows: Test for herbicidal effect against sulfonylurea resistant weeds (Test Example 3). The conditions noted are these: applied at beginning of emergence, examined 3 weeks after treatment. The text has this:
(§10) In a green house seeds of Scirpus juncoides Roxburgh (collected in Iwamizawa area, Hokkaido), Lindernia procumbens Philcox (collected in Kazo area, Saitama Pref.), Lindernia procumbens Philcox (collected in Higashi-Hiroshima area, Hiroshima Pref.), Elatine triandra Schk (collected in Kazo area, Saitama Pref.), all of which were confirmed as sulfonylurea resistant, were inoculated in a 20 cm^2 cup filled with paddy field soil. Then water was poured to a depth of about 2 to 3 cm. At the beginning of emergence of each weed, a prescribed, diluted solution of the formulation of each active compound prepared in the same manner as the above-mentioned Test Example 1 was applied to the surface of water. After the treatment the water depth of 3 cm was maintained and the herbicidal effect was examined after 3 weeks from the treatment. The evaluation of the herbicidal effect was conducted in the same manner as the above-mentioned Test Example 1. In case of showing higher than 80% herbicidal effect, it is evaluated as practical as herbicide. In consideration of the possibility that the biological properties including herbicide resistance of the plants grown in different areas might be different, sulfonylurea resistant Lindernia procumbens Philcox collected in two different areas were used in the present tests. The study results with the compounds No. 1, 3, 11 and 17 and the comparative compound No. C-1 as specific examples are shown in the following Table 6.

Series [17] deals with sulfonylurea resistant Scirpus juncoides Roxburgh (collected in Iwamizawa area, Hokkaido). Described as above. The conditions noted are these: applied at beginning of emergence, examined 3 weeks after treatment.
Text: as §10

Where [18] appears, read: 60 g ai/ha, application 5 days after inoculation.
Where [19] appears, read: 60 g ai/ha, application 13 days after inoculation.
The mark [20] stands for this setting: 30 g ai/ha, application 5 days after inoculation.
[21] abbreviates: 30 g ai/ha, application 13 days after inoculation.

These results are taken from patent US7482308B2, “Difluoromethanesulfonyl anilide derivatives useful as herbicides” (Bayer CropScience AG, priority 2004, dated 2009).

Molecules are shown by their SMILES.

Turning to `COCc1cccc(C(O)c2nc(OC)cc(OC)n2)c1NS(=O)(=O)C(F)F` (centres unmarked) [Compound C-2, reference compound], in series [1], the “period showing sufficient residual herbicidal effectiveness Monochoria vaginalis” value is 2 week. Besides, the “period showing sufficient residual herbicidal effectiveness Sagittaria pygmaea” value in [2] is reported as 3 week. Also, in series [3], the “period showing sufficient residual herbicidal effectiveness Scirpus juncoides” value turned out to be 2 week. The “period showing sufficient residual herbicidal effectiveness broad-leaved weeds” value in [4] stood at 2 week. Moreover, in [5], the “phytotoxicity to transplanted rice depth 0 cm” value is given as 40%, the “phytotoxicity to transplanted rice depth 0.5 cm” value stood at 30% and the “phytotoxicity to transplanted rice depth 2 cm” value is 30%. The “herbicidal effect Cyperus difformis L.” value in series [6] was determined as 100%. For the same molecule, in [7], the “herbicidal effect Monochoria vaginalis” value is recorded as 100%. In addition, the “herbicidal effect Scirpus juncoides” value in series [8] worked out at 90%. In series [9], the “herbicidal effect broad-leaved weeds” value was 100%. For the same molecule, the “Phytotoxicity to direct-seedling rice Nipponbare” value in series [10] worked out at 50%. Besides, in series [11], the “Phytotoxicity to direct-seedling rice RD-23” value was 30%.
Regarding `COc1cc(OC)nc(Cc2cccc(Cl)c2NS(=O)(=O)C(F)F)n1` [Compound 11, 2-chloro-6-[(4,6-dimethoxypyrimidin-2-yl)methyl]-N-difluoromethanesulfonanilide], the “herbicidal effect Cyperus serotinus” value in series [12] (setting [18]) came to 100%; in series [12] (setting [19]), 95%. The “herbicidal effect Monochoria vaginalis” value in series [13] (setting [18]), in [13] (setting [19]) and in series [7] was 100% each time. Further, the entries for the “herbicidal effect Scirpus juncoides” value in series [14] (setting [18]), in series [14] (setting [19]) and in series [8] were 100%, 100% and 90%, respectively. Also, the “herbicidal effect broad-leaved weeds” value in [15] (setting [18]), in [15] (setting [19]) and in [9] was 100% each time. Also, in [1], the “period showing sufficient residual herbicidal effectiveness Monochoria vaginalis” value was 3 week. Moreover, the “period showing sufficient residual herbicidal effectiveness Sagittaria pygmaea” value in series [2] worked out at 4 week. In addition, in [3], the “period showing sufficient residual herbicidal effectiveness Scirpus juncoides” value is recorded as 4 week. In addition, the “period showing sufficient residual herbicidal effectiveness broad-leaved weeds” value in series [4] was 4 week. Also, the “herbicidal effect against sulfonylurea resistant weeds Lindernia procumbens (collected in Kazo area, Saitama Pref.)” value in series [16] (30 g ai/ha) and in [16] (60 g ai/ha) was 100% throughout. In addition, the “herbicidal effect against sulfonylurea resistant weeds Scirpus juncoides (collected in Iwamizawa area, Hokkaido)” value in series [17] (30 g ai/ha) and in series [17] (60 g ai/ha) was 100% in each case. The “phytotoxicity to transplanted rice depth 0 cm” value in series [5] worked out at 15%. The “phytotoxicity to transplanted rice depth 0.5 cm” value in series [5] is listed as 15%. The “phytotoxicity to transplanted rice depth 2 cm” value in series [5] turned out to be 10%. Further, the “herbicidal effect Cyperus difformis L.” value in series [6] was 100%. Besides, the “Phytotoxicity to direct-seedling rice Nipponbare” value in [10] worked out at 10%. Further, the “Phytotoxicity to direct-seedling rice RD-23” value in series [11] worked out at 10%.
On to `COc1cc(OC)nc(C(O)c2cccc(Cl)c2NS(=O)(=O)C(F)F)n1` (centres unmarked) [Compound 3, 2-chloro-6-[(4,6-dimethoxypyrimidin-2-yl)hydroxymethyl]-N-difluoromethanesulfonanilide], for which the “herbicidal effect Cyperus serotinus” value in series [12] (setting [20]) and in [12] (setting [21]) was 100% each time. Besides, the “herbicidal effect Monochoria vaginalis” value in [13] (setting [20]), in series [13] (setting [21]) and in series [7] was 100% in each case. For the same molecule, the “herbicidal effect Scirpus juncoides” value in series [14] (setting [20]), in [14] (setting [21]) and in series [8] was 100% each time. Besides, the “herbicidal effect broad-leaved weeds” value in series [15] (setting [20]), in series [15] (setting [21]) and in series [9] was 100% each time. In addition, the “herbicidal effect against sulfonylurea resistant weeds Lindernia procumbens (collected in Kazo area, Saitama Pref.)” value in [16] (30 g ai/ha) and in series [16] (60 g ai/ha) was 100% in each case. Besides, the “herbicidal effect against sulfonylurea resistant weeds Scirpus juncoides (collected in Iwamizawa area, Hokkaido)” value in series [17] (30 g ai/ha) and in series [17] (60 g ai/ha) was 100% in each case. The “herbicidal effect Cyperus difformis L.” value in [6] is recorded as 100%. The “Phytotoxicity to direct-seedling rice Nipponbare” value in [10] stood at 20%. The “Phytotoxicity to direct-seedling rice RD-23” value in series [11] is listed as 10%.
For the molecule `COc1cc(OC)nc(C(=O)c2cccc(F)c2NS(=O)(=O)C(F)F)n1` [Compound 17, 2-fluoro-6-[(4,6-dimethoxypyrimidin-2-yl)carbonyl]-N-difluoromethanesulfonanilide], the “herbicidal effect Cyperus serotinus” value in series [12] (setting [20]) and in series [12] (setting [21]) was 100% each time. Moreover, the “herbicidal effect Monochoria vaginalis” value in [13] (setting [20]) and in series [13] (setting [21]) was 100% in each case. For the same molecule, the “herbicidal effect Scirpus juncoides” value in [14] (setting [20]) and in series [14] (setting [21]) was 100% in each case. Moreover, the “herbicidal effect broad-leaved weeds” value in series [15] (setting [20]) and in [15] (setting [21]) was 100% throughout. Besides, the figures for the “herbicidal effect against sulfonylurea resistant weeds Lindernia procumbens (collected in Kazo area, Saitama Pref.)” value in series [16] (30 g ai/ha) and in series [16] (60 g ai/ha) were 95% and 100%, respectively. Moreover, the “herbicidal effect against sulfonylurea resistant weeds Scirpus juncoides (collected in Iwamizawa area, Hokkaido)” value in series [17] (30 g ai/ha) and in series [17] (60 g ai/ha) was 100% in each case.
